Data on 19 compounds can be found in patent US8574563B2 (Bristol-Myers Squibb Company, priority 2006, dated 2013).

The structures appear in SMILES notation.

One experiment has as its system HCV 1b-377-neo replicon cells. Description: HCV replicon assay, HCV 1b-377-neo replicon cells (1b FRET). The experiment is classed as cell-based, Hepatitis C virus genotype 1b. As to conditions: HCV 1b-377-neo replicon cells; HCV 1b genotype. The gist of the method:
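FRET-based replicon assay in HCV 1b-377-neo cells, including a comparison line carrying the NS5A Y2065H mutation that confers resistance to a reference compound.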
For `CN(C)[C@@H](C(=O)N1CCC[C@H]1c1ncc(-c2ccc(-c3ccc(-c4cnc([C@@H]5CCCN5C(=O)CNC(=O)c5ccccc5)[nH]4)cc3)cc2)[nH]1)c1ccccc1` [Example 94-6, N-(2-((2S)-2-(5-(4′-(2-((2S)-1-((2R)-2-(dimethylamino)-2-phenylacetyl)-2-pyrrolidinyl)-1H-imidazol-5-yl)-4-biphenylyl)-1H-imidazol-2-yl)-1-pyrrolidinyl)-2-oxoethyl)benzamide], the “EC50 range against HCV 1b (Table 2, Range)” value is listed as “C-D”.

Still in this experiment, the particulars now being: HCV 1b-377-neo replicon cells; HCV 1b genotype; read-out: EC50 range against HCV 1b (Table 2, Range).
For `CN1CCN(C(C(=O)N2CCC[C@H]2c2ncc(-c3ccc(-c4ccc(-c5c[nH]c([C@@H]6CCCN6C(=O)[C@H]6CCCO6)n5)cc4)cc3)[nH]2)c2ccccc2)CC1` (stereo partly drawn) [Example 103-4, 1-methyl-4-(2-oxo-1-phenyl-2-((2S)-2-(5-(4′-(2-((2S)-1-((2R)-tetrahydro-2-furanylcarbonyl)-2-pyrrolidinyl)-1H-imidazol-4-yl)-4-biphenylyl)-1H-imidazol-2-yl)-1-pyrrolidinyl)ethyl)piperazine], the EC50 lay within 0.001 to 0.999 nM. `CCN(CC)[C@@H](C(=O)N1CCC[C@H]1c1ncc(-c2ccc(-c3ccc(-c4cnc([C@@H]5CCCN5C(=O)C5(NC(=O)OC)CC5)[nH]4)cc3)cc2)[nH]1)c1ccccc1` [Example M33, methyl (1-(((2S)-2-(5-(4′-(2-((2S)-1-((2R)-2-(diethylamino)-2-phenylacetyl)-2-pyrrolidinyl)-1H-imidazol-5-yl)-4-biphenylyl)-1H-imidazol-2-yl)-1-pyrrolidinyl)carbonyl)cyclopropyl) carbamate]: the EC50 was 1 to 99 nM.

Still in this experiment, the particulars now being: Hepatitis C virus, HCV 1b-377-neo replicon cells; HCV 1b genotype; read-out: EC50 range against HCV 1b (Table 2, Range).
With `COC(=O)N[C@H](C(=O)N1CCC[C@H]1c1ncc(-c2ccc(-c3ccc(-c4cnc([C@@H]5CCCN5C(=O)[C@@H](Nc5cccnc5)C(C)C)[nH]4)cc3)cc2)[nH]1)C(C)C` [cj-20, methyl ((1S)-2-methyl-1-(((2S)-2-(5-(4′-(2-((2S)-1-(N-3-pyridinyl-L-valyl)-2-pyrrolidinyl)-1H-imidazol-5-yl)-4-biphenylyl)-1H-imidazol-2-yl)-1-pyrrolidinyl)carbonyl)propyl)carbamate], the EC50 was in the range of 0.001 to 0.999 nM. Still for that read-out and setting: the result for `COC(=O)N[C@@H](C)C(=O)N1CC[C@H](O)[C@H]1c1ncc(-c2ccc(-c3ccc(-c4cnc([C@@H]5CCCN5C(=O)[C@H](C)NC(=O)OC)[nH]4)cc3)cc2)[nH]1` [OL-20, methyl ((1S)-2-((2S)-2-(4-(4′-(2-((2R,3S)-3-hydroxy-1-(N-(methoxycarbonyl)-L-alanyl)-2-pyrrolidinyl)-1H-imidazol-4-yl)-4-biphenylyl)-1H-imidazol-2-yl)-1-pyrrolidinyl)-1-methyl-2-oxoethyl)carbamate] reads 1 to 99 nM. Turning to `CC[C@H](NC(=O)OC)C(=O)N1[C@@H]2C[C@@H]2C[C@H]1c1nc(-c2ccc(-c3ccc(-c4c[nH]c([C@@H]5C[C@H]6C[C@H]6N5C(=O)[C@H](CC)NC(=O)OC)n4)cc3)cc2)c[nH]1` [Example M133, dimethyl (4,4′-biphenyl-diylbis(1H-imidazole-4,2-diyl(1R,3S,5R)-2-azabicyclo[3.1.0]hexane-3,2-diyl((2S)-1-oxo-1,2-butanediyl)))biscarbamate], the half-maximal effective concentration (EC50) is 0.001 to 0.999 nM. Turning to `CCN(CC)[C@@H](C(=O)N1CCC[C@H]1c1ncc(-c2ccc(-c3ccc(-c4cnc([C@@H]5CCCN5C(=O)[C@H](Cc5cn(C)cn5)NC(=O)OC)[nH]4)cc3)cc2)[nH]1)c1ccccc1` [cj-40, methyl ((1S)-2-((2S)-2-(5-(4′-(2-((2S)-1-((2R)-2-(diethylamino)-2-phenylacetyl)-2-pyrrolidinyl)-1H-imidazol-5-yl)-4-biphenylyl)-1H-imidazol-2-yl)-1-pyrrolidinyl)-1-((1-methyl-1H-imidazol-4-yl)methyl)-2-oxoethyl)carbamate], the EC50 was in the range of 0.001 to 0.999 nM. On to `COC(=O)N[C@@H](C)C(=O)N1CCC[C@H]1c1ncc(-c2ccc(-c3ccc(-c4cnc([C@@H]5CCCN5C(=O)[C@H](Cc5c[nH]nn5)NC(=O)OC)[nH]4)cc3)cc2)[nH]1` [cj-33, methyl ((1S)-2-((2S)-2-(5-(4′-(2-((2S)-1-(N-(methoxycarbonyl)-L-alanyl)-2-pyrrolidinyl)-1H-imidazol-5-yl)-4-biphenylyl)-1H-imidazol-2-yl)-1-pyrrolidinyl)-2-oxo-1-(1H-1,2,3-triazol-4-ylmethyl)ethyl)carbamate], for which the concentration giving a half-maximal response (EC50) lay within 0.001 to 0.999 nM. For the compound `COC(=O)N[C@@H](C(=O)N1CCC[C@H]1c1ncc(-c2ccc(-c3ccc(-c4cnc([C@@H]5CCCN5C(=O)Cc5cccnc5)[nH]4)cn3)cc2)[nH]1)c1ccccc1` [Example 143, methyl ((1R)-2-oxo-1-phenyl-2-((2S)-2-(5-(4-(5-(2-((2S)-1-(3-pyridinylacetyl)-2-pyrrolidinyl)-1H-imidazol-5-yl)-2-pyridinyl)phenyl)-1H-imidazol-2-yl)-1-pyrrolidinyl)ethyl)carbamate], the EC50 was 0.001 to 0.999 nM. On the same count and under the same terms, the same measure for `CN(C)CC[C@H](NC(=O)OC(C)(C)C)C(=O)N1CCC[C@H]1c1ncc(-c2ccc(-c3ccc(-c4cnc([C@@H]5CCCN5C(=O)[C@H](CCN(C)C)NC(=O)OC(C)(C)C)[nH]4)cc3)cc2)[nH]1` [cj-140, di-tert-butyl (4,4′-biphenyldiylbis(1H-imidazole-5,2-diyl(2S)-2,1-pyrrolidinediyl((2S)-4-(dimethylamino)-1-oxo-1,2-butanediyl)))biscarbamate]: 100 to 999 nM; for `COC(=O)N[C@@H](C(=O)N1CCC[C@H]1c1ncc(-c2ccc(-c3ccc(-c4cnc([C@@H]5CCCN5C(=O)[C@H](NC(=O)OC)c5ccccc5)[nH]4)c(F)c3)cc2)[nH]1)c1ccccc1` [Example D46, dimethyl ((3-fluoro-4,4′-biphenyldiyl)bis(1H-imidazole-5,2-diyl(2S)-2,1-pyrrolidinediyl((1R)-2-oxo-1-phenyl-2,1-ethanediyl))) biscarbamate]: 0.001 to 0.999 nM; for `CC(C)C[C@H](O)C(=O)N1CCC[C@H]1c1ncc(-c2ccc(-c3ccc(-c4cnc([C@@H]5CCCN5C(=O)[C@@H](O)CC(C)C)[nH]4)cc3)cc2)[nH]1` [LS3, (2S,2′S)-1,1′-(4,4′-biphenyldiylbis(1H-imidazole-5,2-diyl(2S)-2,1-pyrrolidinediyl))bis(4-methyl-1-oxo-2-pentanol)]: 1 to 99 nM. With `CCN(C1CC1)[C@@H](C(=O)N1CCC[C@H]1c1ncc(-c2ccc(-c3ccc(-c4cnc([C@@H]5CCCN5C(=O)[C@@H](c5ccccc5)N(CC)C5CC5)[nH]4)cc3)cc2)[nH]1)c1ccccc1` [Example M3, N,N′-(4,4′-biphenyldiylbis(1H-imidazole-5,2-diyl(2S)-2,1-pyrrolidinediyl((1R)-2-oxo-1-phenyl-2,1-ethanediyl)))bis(N-ethylcyclopropanamine)], the concentration for a half-maximal effect (EC50) fell in the range of 1 to 99 nM. Same read-out and setting: the same measure for `COC(=O)N[C@@H](C(=O)N1CCC[C@H]1c1ncc(-c2ccc(-c3ccc(-c4cnc([C@@H]5CCCN5C(=O)Cc5csc(C)n5)[nH]4)cc3)cc2)[nH]1)c1ccccc1` [Example 84-72, methyl ((1R)-2-((2S)-2-(5-(4′-(2-((2S)-1-((2-methyl-1,3-thiazol-4-yl)acetyl)-2-pyrrolidinyl)-1H-imidazol-5-yl)-4-biphenylyl)-1H-imidazol-2-yl)-1-pyrrolidinyl)-2-oxo-1-phenylethyl)carbamate]: 1 to 99 nM. Still for that read-out and setting: the same measure for `CCN(CC)[C@H]1CC[C@@H](C(=O)N2CCC[C@H]2c2ncc(-c3ccc(-c4ccc(-c5cnc([C@@H]6CCCN6C(=O)[C@H](C)NC(=O)OC)[nH]5)cc4)cc3)[nH]2)CC1` [cj-74, methyl ((1S)-2-((2S)-2-(5-(4′-(2-((2S)-1-((cis-4-(diethylamino)cyclohexyl)carbonyl)-2-pyrrolidinyl)-1H-imidazol-5-yl)-4-biphenylyl)-1H-imidazol-2-yl)-1-pyrrolidinyl)-1-methyl-2-oxoethyl)carbamate]: 1 to 99 nM; for `COC(=O)N[C@@H](C(=O)N1CCC[C@H]1c1ncc(-c2ccc(-c3ccc(-c4cnc([C@@H]5CCCN5C(=O)[C@H]5CCCO5)[nH]4)cn3)cc2)[nH]1)c1ccccc1` [Example 141, methyl ((1R)-2-oxo-1-phenyl-2-((2S)-2-(5-(4-(5-(2-((2S)-1((2R)-tetrahydro-2-furanylcarbonyl)-2-pyrrolidinyl)-1H-imidazol-5-yl)-2-pyridinyl)phenyl)-1H-imidazol-2-yl)-1-pyrrolidinyl)ethyl)carbamate]: 0.001 to 0.999 nM. Still for that read-out and setting: the result for `O=C([C@@H](c1ccccc1)N1CCCCC1)N1CC(F)(F)C[C@H]1c1nc(-c2ccc(-c3ccc(-c4cnc([C@@H]5CCCN5C(=O)[C@@H](c5ccccc5)N5CCCCC5)[nH]4)cc3)cc2)c[nH]1` [Example 24-10, 1-((R)-2-((2S)-2-(4-(4′-(2-((2S)-4,4-difluoro-1-((2R)-2-phenyl-2-(1-piperidinyl)acetyl)-2-pyrrolidinyl)-1H-imidazol-4-yl)-4-biphenylyl)-1H-imidazol-2-yl)-1-pyrrolidinyl)-2-oxo-1-phenylethyl)piperidine] reads 0.001 to 0.999 nM. Regarding `CC(C)[C@H](NC(=O)C1CC1)C(=O)N1[C@@H]2C[C@@H]2C[C@H]1c1ncc(-c2ccc(-c3ccc(-c4cnc([C@@H]5C[C@H]6C[C@H]6N5C(=O)[C@@H](NC(=O)C5CC5)C(C)C)[nH]4)cc3)cc2)[nH]1` [Example M141, N-((1S)-1-(((1R,3S,5R)-3-(4-(4′-(2-((1R,3S,5R)-2-((2S)-2-((cyclopropylcarbonyl)amino)-3-methylbutanoyl)-2-azabicyclo[3.1.0]hex-3-yl)-1H-imidazol-4-yl)-4-biphenylyl)-1H-imidazol-2-yl)-2-azabicyclo[3.1.0]hex-2-yl)carbonyl)-2-methylpropyl)cyclopropanecarbamate], the concentration giving a half-maximal response (EC50) was 1 to 99 nM. In the case of `COC(=O)N[C@H](C(=O)N1CCC[C@H]1c1ncc(-c2ccc(-c3ccc(-c4nc([C@@H]5CCCN5C(=O)[C@@H](NC(=O)OC)[C@@H](C)OC)[nH]c4CC(OC)OC)cc3)cc2)[nH]1)[C@@H](C)OC` [Example J14a, methyl ((1S,2R)-1-(((2S)-2-(4-(2,2-dimethoxyethyl)-5-(4′-(2-((2S)-1-(N-(methoxycarbonyl)-O-methyl-L-threonyl)-2-pyrrolidinyl)-1H-imidazol-4-yl)-4-biphenylyl)-1H-imidazol-2-yl)-1-pyrrolidinyl)carbonyl)-2-methoxypropyl)carbamate], the EC50 fell in the range of 0.001 to 0.999 nM.
